These results are taken from EP0272446B1, “Novel antiviral agents” (SRI INTERNATIONAL, priority 1983, dated 1984).

Values after ≈ are worked out from the molar mass of the structure shown. Read-outs that look alike come from different tables or passages of the source. Bounds are passed on as bounds.

In series [1] the test system is Thymidine Kinase-Positive Type 1 Herpes Virus. Put plainly: In vitro antiviral test, inhibition of viral cytopathic effect (CPE) in MA-104 cell monolayers. Type of series: cell-based, Strain McCrae of type 1 herpes. The method, then:
The compounds of Example I and II were evaluated in vitro as antiviral agents against herpes virus.
The virus strain employed was Strain McCrae of type 1 herpes (thymidine kinase positive virus) prepared and titered in MA-104 cells and frozen at -90°C until use.
(§1) Continuous passaged monkey kidney (MA-104) cells were used, with growth medium consisting of Minimum Essential Medium (MEM) supplemented with 0.1% NaHCO₃ and 9% fetal calf serum. Test medium consisted of MEM supplemented with 2% fetal bovine serum, 0.18% NaHCO₃ and […] gentamicin.
The last compounds were added to test medium at a concentration of 2000 µg/ml for use as a positive control.
(§2) To a 96 well microtiter plate containing an established 24 hour monolayer of cells from which the medium has been decanted was added 0.1 ml of varying (one-half log₁₀) concentrations of test compound, which incubated on the cell 15 minutes, after which 0.1 ml of virus in a concentration of 320 cell culture 50% infectious doses (CCID50)/0.1 ml was added. The plate was covered with plastic wrap and incubated at 37°C. Included with the test were toxicity controls (each concentration of compound + test medium in place of […]) and cell controls (test medium in place of compound and virus). The cells were examined microscopically after 72 hours for evidence of cytotoxicity and for viral cytopathic effect (CPE). Vidarabine was run on the same plate in parallel.
Antiviral activity was determined by observation of inhibition of viral CPE. This activity was expressed by minimum inhibitory concentration (MIC), Defined as that dose range of compound causing 50% CPE inhibition. A Virus Rating (VR) was also determined, which is a numerical expression of antiviral activity, weighted to take into account any cytotoxicity observed. Generally, a VR of 0.1 - 0.4 is usually indicative of slight antiviral effect, 0.5 - 0.9 indicates moderate antiviral effedt, and >1.0 implies strong antiviral activity.
Background: Cytopathic effects are the visible damage that an infection or toxin causes in cultured cells.

A short description of series [2]: Cytotoxicity (toxicity controls) in the antiviral test, maximum tolerated dose. Type of series: cell-based. The following applies: monkey, ma-104 cells, Table B. Here is the method: as §1, §2
Series [3] concerns thymidine kinase positive herpes virus. Put plainly: In vivo test in guinea pigs inoculated with herpes virus, lesions measured. Conditions: for Satellite lesions: five days later; for TK+ virus, average number of lesions: measured five days later. The method, then:
The compound of Example II was tested in vivo in guinea pigs as an agent against thymidine kinase positive herpes virus. The animals were innoculated with the virus. Eighteen hours later the material of Example II (0.4% solution in water or 1-2% solution), a 5% solution of acyclovir or a 1.4% solution of poly(vinylalcohol) was administered and five days later blister diameters at the point of innoculation were measured. Satellite lesions were measured as well.

The test system of a further series is cytomegalo virus. Put plainly: In vitro antiviral test (CPE inhibition method) against cytomegalo virus. It is filed as cell-based. Here is the method:
as §2
Antiviral activity was determined by observation of inhibition of viral CPE. This activity was expressed by minimum inhibitory concentration (MIC), Defined as that dose range of compound causing 50% CPE inhibition. A Virus Rating (VR) was also determined, which is a numerical expression of antiviral activity, weighted to take into account any cytotoxicity observed. […]
The compound of Example II was further evaluated by the above-described in vitro test method against cytomegalo virus. […]

Where [4] appears, read: Table A, 0.1 - 0.4 = slight, 0.5 - 0.9 = moderate, ≥ 1.0 = strong activity.
The mark [5] stands for this setting: MA104, 72 h, read-out: CPE Inhib. (%).
Setting [6] is: MA104, read-out: MIC (Minimum inhibitory concentration).
Where [7] appears, read: MA104, read-out: Test1 CPE Inhib. (%).
The mark [8] stands for this setting: MA104, read-out: Test2 CPE Inhib. %.
Setting [9] is: Test 1, read-out: MTD (Maximum tolerated dose).
Setting [10] is: Test 2, read-out: MTD (Maximum tolerated dose).
Setting [11] is: 5% solution given eighteen hours after inoculation.
Where [12] appears, read: 0.4% solution in water given eighteen hours after inoculation.
The mark [13] stands for this setting: 1-2% saturated solution given eighteen hours after inoculation.

Regarding `Nc1nc2c(ncn2COCCCP(=O)(O)O)c(=O)[nH]1` [Example I, 9(3-phosphono-1-propyloxymethyl)guanine], the inhibition at 1 µg/mL in series [1] (MA104, Table A, conc. 1.0 μg/ml, 72 hours, read-out: CPE Inhib. (%)) came to 31%. Besides, the inhibition at 3.2 µg/mL in series [1] (MA104, Table A, conc. 3.2 μg/ml, 72 hours, read-out: CPE Inhib. (%)) is 28%. Further, the inhibition at 10 µg/mL in series [1] (MA104, Table A, conc. 10 μg/ml, 72 hours, read-out: CPE Inhib. (%)) is 49%. In addition, the inhibition at 32 µg/mL in series [1] (MA104, Table A, conc. 32 μg/ml, 72 hours, read-out: CPE Inhib. (%)) was found to be 62%. Besides, in series [1] (MA104, Table A, conc. 100 μg/ml, 72 hours, read-out: CPE Inhib. (%)), the inhibition at 100 µg/mL was found to be 79%. Also, the inhibition at 320 µg/mL in series [1] (MA104, Table A, conc. 320 μg/ml, 72 hours, read-out: CPE Inhib. (%)) is 94%. Further, the inhibition at 1000 µg/mL in series [1] (MA104, Table A, conc. 1000 μg/ml, 72 hours, read-out: CPE Inhib. (%)) stood at 100%. Besides, in series [1] (MA104, Table A, dosage range wherein a 50% CPE inhibition is seen, read-out: MIC (Minimum inhibitory concentration)), the EC50 is 10 µg/mL (≈ 33 µM). The “VR (Virus rating)” value in series [1] (setting [4]) turned out to be 1.4.

`Nc1ncnc2c1ncn2[C@@H]1O[C@H](CO)[C@@H](O)[C@@H]1O` [Vidarabine, reference compound]: in series [1] (setting [5]), the inhibition at 1 µg/mL is 56%, the inhibition at 3.2 µg/mL was determined as 28%, the inhibition at 10 µg/mL is 69% and the inhibition at 32 µg/mL was 87%. In series [1] (setting [5]), the inhibition at 100 µg/mL was 87%, the inhibition at 320 µg/mL amounted to 100% and the inhibition at 1000 µg/mL was found to be 100%. The EC50 in series [1] (setting [6]) turned out to be 10 µg/mL (≈ 37.4 µM). Further, in series [1] (setting [7]), the inhibition at 3.2 µg/mL was determined as 2%, the inhibition at 10 µg/mL was 60%, the inhibition at 32 µg/mL was determined as 96% and the inhibition at 100 µg/mL turned out to be 96%. For the same compound, in series [1] (setting [7]), the inhibition at 320 µg/mL was found to be 100% and the inhibition at 1000 µg/mL amounted to 100%. Besides, in series [1] (setting [8]), the inhibition at 3.2 µg/mL amounted to 0%, the inhibition at 10 µg/mL stood at 39%, the inhibition at 32 µg/mL turned out to be 57% and the inhibition at 100 µg/mL was determined as 85%. In series [1] (setting [8]), the inhibition at 320 µg/mL was found to be 100% and the inhibition at 1000 µg/mL was found to be 100%. Further, the “VR (Virus rating)” value in series [1] (setting [4]) was determined as 1.3. For the same compound, the “VR (Virus rating)” value in series [1] (Table B, Test 1) was found to be 0.8. The “VR (Virus rating)” value in series [1] (Table B, Test 2) was 07. Besides, the MNTC at 72 h in series [2] (setting [9]) amounted to 10 µg/mL. Besides, the MNTC at 72 h in series [2] (setting [10]) was 10 µg/mL.

As to `Nc1nc2c(ncn2COCCO)c(=O)[nH]1` [Acyclovir, acyclovir, reference compound], in series [3] (setting [11]), the Satellite lesions is given as 4 and the “TK+ virus, average number of lesions” value was determined as 1.0.

For the compound `CCOP(=O)(O)CCCOCn1cnc2c(=O)[nH]c(N)nc21` [Example II, 9(3-ethylphosphono-1-propyloxymethyl)guanine], the EC50 in series [1] (setting [6]) was less than 1 µg/mL. For the same compound, in series [1] (setting [7]), the inhibition at 1.2 µg/mL stood at 69%, the inhibition at 3.2 µg/mL came to 96%, the inhibition at 10 µg/mL came out at 38% and the inhibition at 32 µg/mL amounted to 6%. Further, in series [1] (setting [7]), the inhibition at 100 µg/mL is 47%, the inhibition at 320 µg/mL was 82% and the inhibition at 1000 µg/mL is 100%. Further, in series [1] (setting [8]), the inhibition at 1.2 µg/mL was 48%, the inhibition at 3.2 µg/mL was determined as 52%, the inhibition at 10 µg/mL came out at 48% and the inhibition at 32 µg/mL was found to be 57%. Further, in series [1] (setting [8]), the inhibition at 100 µg/mL came out at 57%, the inhibition at 320 µg/mL turned out to be 67% and the inhibition at 1000 µg/mL turned out to be 76%. Also, in series [1] (Table B, Test 1), the “VR (Virus rating)” value was greater than 2.0. The “VR (Virus rating)” value in series [1] (Table B, Test 2) is listed as greater than 1.4. Moreover, in series [1] (Table B, Test 2, dosage range wherein a 50% CPE inhibition is seen), the “MIC (Minimum inhibitory concentration)” value is less than 1.0 µg/mL. In addition, the MNTC at 72 h in series [2] (setting [9]) turned out to be 320 µg/mL. Besides, the MNTC at 72 h in series [2] (setting [10]) is greater than 1000 µg/mL. Besides, in the series on cytomegalo virus, the VR was 2.1-2.3. Moreover, in series [3] (setting [12]), the Satellite lesions came out at 11 and the “TK+ virus, average number of lesions” value was 2.1. In series [3] (setting [13]), the Satellite lesions came to 6 and the “TK+ virus, average number of lesions” value came out at 0.9.
